Test results taken from patent US10980239B2, “Decontamination solution and its use for denaturation, modification, degradation, solubilisation and removal of proteins, nucleic acid molecules and microorganisms” (MULTIBIND BIOTEC GMBH, priority 2005, dated 2021).

Tests used:
Assay type in all cases: cell-based
[1] = system: listed microorganisms (Escherichia coli, Bacillus subtilis, Saccharomyces cerevisiae, Candida parapsilosis); assay: Test for the anti-microbial action, summary for all listed microorganisms; settings: 10^6 cells mixed 1:1 with solution, 2 minutes incubation, plated, 1-3 days
Experimental: (§1) Freshly grown cultures of the listed microorganisms were adjusted to a cell number of 10^6 in a 50 μl volume and mixed in a ratio of 1:1 with 50 μl of water, 70% ethanol or the three component system (100 mM ascorbic acid, 10 mM FeCl3 and 0.5% SDS). After an incubation time of 2 minutes the 100 μl samples containing the microorganisms were plated onto the respective growth media. After an incubation period of 1-3 days at 28° C. (Saccharomyces cerevisiae and Candida parapsilosis) or 37° C. (Escherichia coli and Bacillus subtilis) the number of grown colonies was determined.

Escherichia coli = assay: Test for the anti-microbial action, colony count after plating; settings: 10^6 cells in 50 μl mixed 1:1 with solution, 2 minutes incubation, plated, 1-3 days at 37° C.
Experimental: as §1

Saccharomyces cerevisiae = assay: as above; settings: 10^6 cells in 50 μl mixed 1:1 with solution, 2 minutes incubation, plated, 1-3 days at 28° C.
Experimental: as §1

Bacillus subtilis = assay: as above; settings: 10^6 cells in 50 μl mixed 1:1 with solution, 2 minutes incubation, plated, 1-3 days at 37° C.
Experimental: as §1

[2] = system: recombinant Escherichia coli strain with an extra-chromosomal plasmid (YEp351); assay: Degradation of genomic DNA and extra-chromosomal genetic material inside microorganisms (FIG. 8, gel electrophoresis); settings: 5 μl E. coli suspension, lysozyme 5 minutes, then 5 μl solution for 5 minutes
Experimental: A recombinant Escherichia coli strain with an extra-chromosomal plasmid (YEp351) was grown over night in LB, amp medium. Aliquots of 5 μl from the E. coli suspension were treated with 5 μl lysozyme solution (1 mg/ml) for 5 minutes and subsequently incubated with 5 μl of the listed solutions (1-5) for additional 5 minutes. After addition of bromphenol blue the samples were loaded into the gel slots and separated by electrophoresis of the DNA molecules.
(M: Marker 1 Kb Ladder; C: Control with H2O; 1: 70% Ethanol; 2: 0.5% Bacillozid™; 3: 0.5% SDS; 4: 0.5% Na-Azide+0.5% SDS; 5: 100 mM vitamin C+10 mM FeCl3+0.5% SDS; C: Control: 5 μl sterile H2O)

## CCO [70% ethanol, ethanol]
[1]
  living cell colonies, all listed microorganisms: did not show any living cell colony
Escherichia coli
  number of grown colonies: 0
Saccharomyces cerevisiae
  number of grown colonies: 0
Bacillus subtilis
  number of grown colonies: 0
[2]
  effect on cells and DNA molecules seen in the gel: precipitation of the lysate and the DNA

## CCCCCCCCCCCCOS(=O)(=O)[O-].[Na+] [sample 3, Sodiumdodecylsulfate]
[2]
  effect on cells and DNA molecules seen in the gel: lysis of the cells is observed
